Laboratory results from paper PMC5698418 (Nature Communications, 2017).

How the values were obtained:
[1] = system: BDNF-induced nuclear Arc expression in primary cortical neurons; assay: Chemogenomic screen: high-content image-based assay of BDNF-induced nuclear Arc expression (96-well); type: cell-based, mouse
Method in brief: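 DIV13 mouse primary cortical neurons (30,000 cells/well) are treated with compound at 16.7 µM and BDNF, in three biological replicates. Arc and acetyl-H3K9 are immunostained and imaged at ×40, and nuclear Arc signal is quantified automatically using acetyl-H3K9 as the nuclear mask.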

acetyl-H3K9 = assay: Acetyl-H3K9 immunofluorescence in neuronal nuclei (multiplexed in screen); type: cell-based, mouse; settings: screen, 16.7 µM
Method: To increase the throughput of our pharmacological screening for modulators of Arc, the above mentioned assay was adapted to cultures of mouse primary cortical neurons in 96-well plates.
Screening of compounds in the chemogenomic library was carried out using DIV13 primary forebrain cortical neurons cultured on poly-L-lysine/laminin-coated 96-well plates (Ibidi USA, Madison, WI). Cells were seeded at a density of 30,000 cells per well and treated with the compound library and BDNF according to the experimental design presented in Fig. 3a. After experimental treatment, cells were processed for Arc and acetyl-H3K9 immunocytochemistry according to the protocol described above. Both antigens (Arc and acetyl-H3K9) were imaged using an IN Cell Analyzer 6000 imaging system and a ×40 objective. […] High-throughput quantification of nuclear Arc immunofluorescence signal was performed in a similar fashion than the low-throughput procedure described above but with the exception that acetyl-H3K9 was used as a nuclear mask to guide the automated quantification of nuclear Arc immunofluorescence signal.

GluA1 mRNA = GluA1 mRNA by RT-qPCR in cortical neurons; type: cell-based, mouse; settings: BDNF plus AK-7 16.7 µM vs BDNF plus vehicle, 6 h
Method: (§1) After experimental treatment, total RNA was isolated from primary cortical neuron cultures using the TRIzol method (Invitrogen). The concentration of total RNA was measured using a NanoDrop 1000 spectrophotometer (Thermo Fisher Scientific, Rockford, IL) and first-strand complementary DNA (cDNA) was synthesized using the iScript cDNA Synthesis Kit (Bio-Rad, Hercules, CA). Real-time PCRs were performed using gene-specific primers and monitored by quantification of SYBR Green I fluorescence using a Bio-Rad CFX96 Real-Time Detection System. Expression was normalized against Gapdh expression. The relative quantification from at least three biological replicates was performed using the comparative cycle threshold (∆∆CT) method.
(§2) Primers for real-time reverse transcription PCR experiments were: Arc, 5′-[…]-3′ (forward) and 5′-[…]-3′ (reverse); Map2, 5′-[…]-3′ (forward) and 5′-[…]-3′ (reverse); GluA1, 5′-[…]-3′ (forward) and 5′-[…]-3′ (reverse); GluA2, 5′-[…]-3′ (forward) and 5′-[…]-3′ (reverse); Gapdh, 5′-[…]-3′ (forward) and 5′-[…]-3′ (reverse).
(§3) Supplementary Fig. 6. […] Bars represent mean fold-change and error bars indicate range from five biological replicates.

GluA2 mRNA = GluA2 mRNA by RT-qPCR in cortical neurons; type: cell-based, mouse; settings: BDNF plus AK-7 16.7 µM vs BDNF plus vehicle, 6 h
Method: as §1, §2, §3

HDAC1 = target: T1, HDAC1 (Homo sapiens, UniProt Q13547); assay: Biochemical HDAC assay (BPS Bioscience), HDAC1; settings: 25 µM
T1 construct: purchased BPS Bioscience (San Diego, CA), contract assay service
T1 sequence (Q13547 whole entry): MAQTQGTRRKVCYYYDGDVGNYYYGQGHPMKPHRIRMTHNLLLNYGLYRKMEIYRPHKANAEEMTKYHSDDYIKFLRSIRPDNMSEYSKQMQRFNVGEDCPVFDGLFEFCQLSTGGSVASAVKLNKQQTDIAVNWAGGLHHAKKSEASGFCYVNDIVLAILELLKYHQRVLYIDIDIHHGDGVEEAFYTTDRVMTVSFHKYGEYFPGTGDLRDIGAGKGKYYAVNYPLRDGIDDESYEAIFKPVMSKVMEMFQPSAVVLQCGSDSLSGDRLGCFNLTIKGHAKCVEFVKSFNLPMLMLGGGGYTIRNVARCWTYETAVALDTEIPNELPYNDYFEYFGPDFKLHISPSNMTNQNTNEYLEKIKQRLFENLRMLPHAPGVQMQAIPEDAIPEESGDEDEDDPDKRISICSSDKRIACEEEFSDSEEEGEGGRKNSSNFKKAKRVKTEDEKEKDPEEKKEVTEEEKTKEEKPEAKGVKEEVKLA

HDAC2 = target: T2, HDAC2 (Homo sapiens, UniProt Q92769); assay: Biochemical HDAC assay (BPS Bioscience), HDAC2; settings: 25 µM
T2 construct: purchased BPS Bioscience (San Diego, CA), contract assay service
T2 sequence (Q92769 whole entry): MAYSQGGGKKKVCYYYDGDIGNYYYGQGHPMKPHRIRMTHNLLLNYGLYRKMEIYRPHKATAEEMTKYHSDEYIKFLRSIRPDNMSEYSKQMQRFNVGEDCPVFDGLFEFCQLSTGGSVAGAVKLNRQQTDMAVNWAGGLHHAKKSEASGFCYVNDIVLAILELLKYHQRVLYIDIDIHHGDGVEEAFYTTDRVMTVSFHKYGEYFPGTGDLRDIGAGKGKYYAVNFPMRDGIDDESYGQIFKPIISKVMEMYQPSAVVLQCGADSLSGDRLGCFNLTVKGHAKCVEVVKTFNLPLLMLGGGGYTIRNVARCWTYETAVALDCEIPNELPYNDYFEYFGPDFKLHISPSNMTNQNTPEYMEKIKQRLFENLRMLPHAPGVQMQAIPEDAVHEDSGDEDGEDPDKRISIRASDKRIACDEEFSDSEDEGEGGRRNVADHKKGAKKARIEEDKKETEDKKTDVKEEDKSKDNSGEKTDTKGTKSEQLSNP

HDAC3 = target: T3, HDAC3 (Homo sapiens, UniProt O15379); assay: Biochemical HDAC assay (BPS Bioscience), HDAC3; settings: 25 µM
T3 construct: purchased BPS Bioscience (San Diego, CA), contract assay service
T3 sequence (O15379 whole entry): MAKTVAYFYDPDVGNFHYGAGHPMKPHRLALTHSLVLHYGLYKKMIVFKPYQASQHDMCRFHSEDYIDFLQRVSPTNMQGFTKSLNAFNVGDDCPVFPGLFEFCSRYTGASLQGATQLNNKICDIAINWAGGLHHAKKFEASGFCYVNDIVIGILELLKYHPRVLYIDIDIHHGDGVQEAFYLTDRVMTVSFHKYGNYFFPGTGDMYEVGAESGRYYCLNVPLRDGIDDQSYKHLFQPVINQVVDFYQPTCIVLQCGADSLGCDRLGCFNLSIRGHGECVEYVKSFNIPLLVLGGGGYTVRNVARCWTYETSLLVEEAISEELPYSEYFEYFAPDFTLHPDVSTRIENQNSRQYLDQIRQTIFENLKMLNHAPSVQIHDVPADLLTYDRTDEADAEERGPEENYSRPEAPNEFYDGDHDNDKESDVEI
T3 sequence (Q9Y618 395-489 partner limits assumed): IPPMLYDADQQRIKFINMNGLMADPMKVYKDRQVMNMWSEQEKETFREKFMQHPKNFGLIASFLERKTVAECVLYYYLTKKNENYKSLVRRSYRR

HDAC5 = target: T4, HDAC5 (Homo sapiens, UniProt Q9UQL6); assay: Biochemical HDAC assay (BPS Bioscience), HDAC5; settings: 25 µM
T4 construct: purchased BPS Bioscience (San Diego, CA), contract assay service
T4 sequence (Q9UQL6 whole entry): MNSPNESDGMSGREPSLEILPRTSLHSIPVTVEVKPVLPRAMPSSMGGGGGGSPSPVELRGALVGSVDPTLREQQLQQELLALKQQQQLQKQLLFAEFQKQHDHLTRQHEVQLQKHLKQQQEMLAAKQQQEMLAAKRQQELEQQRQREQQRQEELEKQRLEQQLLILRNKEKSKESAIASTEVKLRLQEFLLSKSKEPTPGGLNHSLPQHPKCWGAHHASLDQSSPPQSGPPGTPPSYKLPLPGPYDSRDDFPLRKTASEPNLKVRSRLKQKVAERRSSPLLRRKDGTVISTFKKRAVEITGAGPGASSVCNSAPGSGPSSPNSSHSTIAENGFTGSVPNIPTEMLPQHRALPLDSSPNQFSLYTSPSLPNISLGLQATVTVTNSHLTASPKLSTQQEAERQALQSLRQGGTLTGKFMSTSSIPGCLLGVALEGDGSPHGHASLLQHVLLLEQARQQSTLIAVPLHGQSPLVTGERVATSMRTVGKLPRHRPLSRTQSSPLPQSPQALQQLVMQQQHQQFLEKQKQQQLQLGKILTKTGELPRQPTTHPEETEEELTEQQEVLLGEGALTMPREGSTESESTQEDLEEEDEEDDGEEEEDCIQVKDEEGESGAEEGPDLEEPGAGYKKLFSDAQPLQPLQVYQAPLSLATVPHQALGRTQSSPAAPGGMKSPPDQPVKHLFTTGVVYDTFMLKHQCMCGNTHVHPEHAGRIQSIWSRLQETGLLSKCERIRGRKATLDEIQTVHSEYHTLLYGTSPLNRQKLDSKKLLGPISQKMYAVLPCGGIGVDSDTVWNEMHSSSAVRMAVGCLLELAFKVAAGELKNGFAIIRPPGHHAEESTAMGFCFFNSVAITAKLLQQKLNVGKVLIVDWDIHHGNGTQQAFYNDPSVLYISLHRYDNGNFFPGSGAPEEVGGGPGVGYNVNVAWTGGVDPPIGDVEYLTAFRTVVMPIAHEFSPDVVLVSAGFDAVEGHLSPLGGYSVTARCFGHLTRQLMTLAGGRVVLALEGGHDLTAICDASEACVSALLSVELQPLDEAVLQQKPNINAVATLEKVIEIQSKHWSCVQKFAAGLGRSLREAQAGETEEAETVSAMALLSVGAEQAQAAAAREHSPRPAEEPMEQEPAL

HDAC6 = target: T5, HDAC6 (Homo sapiens, UniProt Q9UBN7); assay: Biochemical HDAC assay (BPS Bioscience), HDAC6; settings: 25 µM
T5 construct: purchased BPS Bioscience (San Diego, CA), contract assay service
T5 sequence (Q9UBN7 whole entry): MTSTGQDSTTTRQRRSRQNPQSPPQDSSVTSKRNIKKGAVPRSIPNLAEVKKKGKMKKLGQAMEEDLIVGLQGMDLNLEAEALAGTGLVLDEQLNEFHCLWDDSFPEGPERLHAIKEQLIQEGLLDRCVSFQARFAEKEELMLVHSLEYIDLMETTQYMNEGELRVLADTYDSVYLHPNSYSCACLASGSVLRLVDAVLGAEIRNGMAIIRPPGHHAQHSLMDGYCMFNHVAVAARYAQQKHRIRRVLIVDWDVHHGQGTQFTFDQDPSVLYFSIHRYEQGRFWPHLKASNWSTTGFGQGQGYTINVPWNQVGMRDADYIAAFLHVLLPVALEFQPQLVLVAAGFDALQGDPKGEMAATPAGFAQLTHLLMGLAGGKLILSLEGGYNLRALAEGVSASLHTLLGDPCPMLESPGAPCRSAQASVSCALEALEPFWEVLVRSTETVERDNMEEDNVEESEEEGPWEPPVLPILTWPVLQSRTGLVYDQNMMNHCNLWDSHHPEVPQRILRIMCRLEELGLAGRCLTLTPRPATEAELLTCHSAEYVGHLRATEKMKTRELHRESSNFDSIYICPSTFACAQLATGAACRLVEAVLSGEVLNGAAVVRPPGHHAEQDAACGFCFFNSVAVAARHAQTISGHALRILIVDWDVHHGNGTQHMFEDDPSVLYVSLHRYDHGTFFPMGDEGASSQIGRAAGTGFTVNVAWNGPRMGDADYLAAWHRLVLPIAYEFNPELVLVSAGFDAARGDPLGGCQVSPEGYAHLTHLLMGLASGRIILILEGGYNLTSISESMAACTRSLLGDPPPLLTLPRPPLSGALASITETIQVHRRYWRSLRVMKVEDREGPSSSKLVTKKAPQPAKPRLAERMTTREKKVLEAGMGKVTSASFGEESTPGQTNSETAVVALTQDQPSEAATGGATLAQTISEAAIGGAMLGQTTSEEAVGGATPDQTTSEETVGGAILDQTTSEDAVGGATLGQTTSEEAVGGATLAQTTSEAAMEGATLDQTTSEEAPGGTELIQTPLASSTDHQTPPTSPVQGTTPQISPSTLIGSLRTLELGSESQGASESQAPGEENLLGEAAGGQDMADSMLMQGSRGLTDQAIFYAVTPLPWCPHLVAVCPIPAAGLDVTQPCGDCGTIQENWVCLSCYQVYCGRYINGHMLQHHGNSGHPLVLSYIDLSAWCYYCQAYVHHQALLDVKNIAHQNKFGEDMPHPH

[2] = system: acetyl-H3K9 in dentate gyrus; assay: Acetyl-H3K9 immunohistochemistry in dentate gyrus after intraperitoneal injection; type: in vivo, mouse; settings: 30 mg kg−1 i.p., 3 h, home cage
Method: Male mice (C57BL/6 strain) were received as 6-weeks old and habituated to their home cage as trios for 2 weeks before conducting the experiments. During the habituation time period, mice were kept on a light–dark cycle with minimal disruption and unrestricted access to food and water. On experiment day, mice from the same cage were taken and randomly subjected to intraperitoneal injection of vehicle (25% Kolliphor EL (Sigma-Aldrich, C5135), 10% DMSO) or AK-7 (30 mg kg^−1) solution and immediately placed back in their home cage or transferred to a novel environment. […]
The following approach was adopted to quantify the number of Arc-positive cell bodies and average acetyl-H3K9 immunostaining pixel intensity in dentate gyrus. First, complete dentate gyrus overlapping grayscale images of DAPI fluorescence and Arc or acetyl-H3K9 immunostaining were collected using a ×20 objective and Nikon Eclipse 90i upright microscope equipped with a motorized stage and image stitching capability. Second, the boundary of the dentate gyrus based on the DAPI fluorescence was determined in each image set with the ImageJ wand tool. Finally, this information was used for image segmentation and quantification of Arc-positive cell bodies or average acetyl-H3K9 immunostaining pixel intensity within each dentate gyrus images. […]

[3] = parameters: method as in PMID 21370928, PMID 23200855; settings: ref [34],[42]; cited from earlier work

O=C(Nc1cccc(Br)c1)c1cccc(S(=O)(=O)N2CCCCCC2)c1 [AK-7]
rank among potentiators of BDNF-induced nuclear Arc expression in screen ([1]; 16.7 µM, three biological replicates): first | Percentage of cell with nuclear Arc immunostaining above 2σ threshold ([1]; chemogenomic (SMART) screen, BDNF-induced nuclear Arc expression, primary cortical neurons, BDNF control 19.5): 61.6% | Fold-change — Normalized to DMSO control (BDNF) ([1]; nuclear Arc-positive cells relative to DMSO + BDNF control, negative values = decrease): 3.2 fold | impact on acetyl-H3K9 immunofluorescence (Z-score) (acetyl-H3K9): increasing effect of intermediate intensity | GluA1 mRNA expression (GluA1 mRNA): does not affect | GluA2 mRNA expression (GluA2 mRNA): does not affect | inhibitory activity toward HDAC1 (HDAC1): failed to show any inhibitory activity | inhibitory activity toward HDAC2 (HDAC2): failed to show any inhibitory activity | inhibitory activity toward HDAC3 (HDAC3): failed to show any inhibitory activity | inhibitory activity toward HDAC5 (HDAC5): failed to show any inhibitory activity | inhibitory activity toward HDAC6 (HDAC6): failed to show any inhibitory activity | acetyl-H3K9 immunofluorescence staining intensity in dentate gyrus vs vehicle [2]: small but statistically significant increase | blood–brain barrier crossing [3]: can efficiently cross the blood–brain barrier
